The values below come from patent US10335378B2, “Inhibition of central nervous system effects from smoking and sensory effects from smoking” (Altria Client Services LLC, priority 2013, dated 2019).

“Also recorded” adds a separate entry of the source.

The subject of assay [1] is nicotinic acetylcholine receptors. The assay can be described thus: Nicotine-induced CGRP release in buccal mucosa tissue samples. In kind it is cell-based, mouse. The source says:
Active ingredients appropriate for use in embodiments described herein may also include isoborneol.

Assay [2] has as its system mouse nodose/jugular Ggl neurons. The assay can be described thus: Calcium imaging (340 and 380 nm) of nicotine-stimulated neurons. The conditions noted are these: FIG. 3b. In kind it is cell-based. The procedure:
(§1) (FIG. 3a). […] Calcium-imaging experiments were performed on mouse nodose/jugular Ggl neurons with images captures at 340 and 380 nm over time. (FIG. 3b). […] (FIG. 3b). […] (FIG. 3c). […] (FIG. 3c). […] (FIG. 3d).

Assay [3] relates to nAChR receptor. The assay can be described thus: Nicotine-induced CGRP release in mouse trachea tissue (ELISA). In kind it is cell-based. Particulars: for Maximal nicotinic response (CGRP release, time course): trachea tissue pretreated with nicotine, then enantiomer, FIG. 2; for CGRP release versus nicotine alone: trachea samples exposed to nicotine plus test substance, FIG. 1b. As for the experimental part: (§2) CGRP is a sensory biomarker of neurons that mediate information to the brain. CGRP release can be detected in vitro using whole trachea tissue by exposing the tissue to a stimulatory compound. A standard ELISA assay may then be used to measure the release of CGRP. The active ingredient was tested using a mouse trachea model.
In order to determine whether a specific enantiomer of the active ingredient show greater efficacy, time course experiments were conducted in which trachea tissue samples were pretreated with nicotine and exposed to either the (−) or (+) enantiomer of camphor.
as §1
A general note: ELISA stands for enzyme-linked immunosorbent assay.

For assay [4], the system named is nAChR receptor. The assay can be described thus: Epibatidine-induced CGRP release in tracheal tissue. In kind it is cell-based, mouse.
Assay [5] has as its target T1, TRPA1 channel (Mus musculus, UniProt Q8BLA8). The assay can be described thus: Formalin-stimulated CGRP release in skin and tracheal tissue samples. It counts as cell-based. Set-up: formalin-stimulated GCRP release in both skin and tracheal tissue samples; from tissue; host or cells: skin and tracheal tissue samples. The conditions noted are these: FIG. 8. As for the experimental part: (§3) Similar dosing experiments were performed using formalin, a TRPA1 channel […]. […] (FIG. 8). […] Thus, in some embodiments, active ingredients may be used that inhibit both the nicotinic acetylcholine receptors and the TRPA1 channel. […] (FIG. 9). […] (FIG. 9).

Another assay deals with tracheal tissue samples. The assay is described as follows: Total particulate matter (TPM)-stimulated CGRP release in tracheal tissue samples. The conditions noted are these: FIG. 10. In kind it is cell-based. From the text:
To assess the potential of camphor on GCRP release stimulated by cigarette smoking, tracheal tissue samples were exposed to total particulate matter (TPM) containing the same amount of nicotine as in the nicotine alone experiment. […] (FIG. 10). […] (FIG. 10). The results observed in the TPM experiments are similar to those seen in experiments in which nicotine is used alone. (FIG. 10).

The next assay concerns nerve fibers. The conditions noted are these: isolated mouse trachea model; cited from earlier work.
Assay [6] has as its target T1, TRPA1 channel. The assay is described as follows: Acrolein-induced CGRP release in mouse trachea tissue. It counts as cell-based. Set-up: CGRP release can be detected in vitro using whole trachea tissue; from tissue; host or cells: mouse trachea. The conditions noted are these: FIG. 7; for CGRP release versus acrolein alone: trachea samples exposed to acrolein plus test substance. As for the experimental part: as §2
(FIG. 7). […] (FIG. 7). […] (FIG. 7).

Assay [7] concerns the target T1, TRPA1 channel. The assay can be described thus: TRPA1 irritant-stimulated iCGRP release in tracheal tissue samples. It counts as cell-based. Also noted: formalin-stimulated GCRP release in both skin and tracheal tissue samples; from tissue; host or cells: skin and tracheal tissue samples. Particulars: tracheal tissue samples with TRPA1 channel irritants; FIG. 9. The procedure:
as §3

Another assay has as its system acetylcholine receptors. Particulars: adrenal gland cells; cited from earlier work.
The subject of another assay is TRPV1 channel. The assay can be described thus: Heat (45° C.)-induced CGRP release in tracheal samples. It counts as cell-based, mouse. The conditions noted are these: FIG. 6; for Heat-induced CGRP release with test substance: 45° C.
Where [8] appears, read: tracheal samples of TRPV1 knockout mice.
The mark [9] stands for this setting: tracheal samples of normal mice.

T1 sequence (Q8BLA8 whole entry): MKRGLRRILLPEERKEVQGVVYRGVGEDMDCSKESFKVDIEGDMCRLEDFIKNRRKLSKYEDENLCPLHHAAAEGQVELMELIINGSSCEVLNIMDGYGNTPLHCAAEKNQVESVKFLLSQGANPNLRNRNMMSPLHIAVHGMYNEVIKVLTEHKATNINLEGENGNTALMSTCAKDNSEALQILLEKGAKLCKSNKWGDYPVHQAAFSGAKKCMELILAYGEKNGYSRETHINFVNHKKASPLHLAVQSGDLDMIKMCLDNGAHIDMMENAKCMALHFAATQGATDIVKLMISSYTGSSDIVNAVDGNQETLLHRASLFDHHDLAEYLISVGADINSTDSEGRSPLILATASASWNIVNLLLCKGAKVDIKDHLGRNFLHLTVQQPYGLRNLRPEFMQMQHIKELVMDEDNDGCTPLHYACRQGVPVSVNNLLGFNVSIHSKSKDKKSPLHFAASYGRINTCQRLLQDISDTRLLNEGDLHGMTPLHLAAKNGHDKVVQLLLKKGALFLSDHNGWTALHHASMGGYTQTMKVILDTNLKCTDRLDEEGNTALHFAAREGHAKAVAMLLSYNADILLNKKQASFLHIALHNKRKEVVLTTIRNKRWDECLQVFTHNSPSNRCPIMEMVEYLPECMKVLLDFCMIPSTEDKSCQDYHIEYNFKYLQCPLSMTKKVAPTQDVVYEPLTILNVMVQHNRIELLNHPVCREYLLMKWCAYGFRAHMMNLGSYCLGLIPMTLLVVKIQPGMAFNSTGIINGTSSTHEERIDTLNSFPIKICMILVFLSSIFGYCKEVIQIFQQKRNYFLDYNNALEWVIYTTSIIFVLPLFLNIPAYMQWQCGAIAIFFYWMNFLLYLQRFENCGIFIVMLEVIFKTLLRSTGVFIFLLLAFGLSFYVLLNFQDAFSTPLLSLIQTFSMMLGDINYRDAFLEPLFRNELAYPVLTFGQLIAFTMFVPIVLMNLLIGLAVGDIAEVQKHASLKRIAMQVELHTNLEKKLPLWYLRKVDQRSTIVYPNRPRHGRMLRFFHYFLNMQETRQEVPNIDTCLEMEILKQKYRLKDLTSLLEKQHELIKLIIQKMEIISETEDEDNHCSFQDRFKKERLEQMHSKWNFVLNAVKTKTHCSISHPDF

On to `CN1CCCC1c1cccnc1` (stereo not shown) [nicotine], for which the “CGRP release induced by nicotine alone” value in assay [1] (buccal mucosa, TRPA1/TRPV1 double knockout mice, FIG. 4) is given as “did not respond to nicotine exposure by releasing similar amounts of CGRP relative to normal mice”; in assay [1] (buccal mucosa, normal C57Bl/6 mice, FIG. 4, FIGS. 5a and 5b) it was “released increased amounts of CGRP; also recorded: increased release of CGRP”. Moreover, the “Calcium influx, stimulus alone” value in [2] is reported as “stimulated calcium influx in Ggl neurons”. Besides, the “CGRP release induced by the stimulus alone” value in the assay on nAChR receptor [3] (mouse trachea, FIG. 1a) is reported as “induce the release of calcitonin gene-related peptide (CGRP)”.

As to `CC12CCC(CC1=O)C2(C)C` (single isomer, unassigned; (+)) [(+) enantiomer of camphor], the “Maximal nicotinic response (CGRP release, time course)” value in the assay on nAChR receptor [3] is recorded as “effective at abolishing the maximal nicotinic response”.

Regarding `CNC1(C)C2CCC(C2)C1(C)C` (stereo not shown) [Mecamylanine, reference compound], the “Epibatidine-induced CGRP release with inhibitor” value in the assay with nAChR receptor [4] (tracheal tissue, FIG. 3c) is “release of CGRP could be inhibited”.

Consider `CC(C)(C)c1ccc(NC(=O)N2CCN(c3ncccc3Cl)CC2)cc1` [BCTC, reference compound], for which the “CGRP release versus nicotine alone” value in the assay on nAChR receptor [3] is recorded as “did not show any significant reduction in CGRP release”.

With `CC12CCC(CC1=O)C2(C)C` (stereo not shown) [camphor], in [1] (buccal mucosa time course, male mice showed stronger inhibition, FIGS. 5a and 5b), the “CGRP release after nicotine followed by test substance, versus nicotine alone” value is listed as “CGRP release was significantly lower”. Also, the “CGRP release with nicotine and camphor” value in assay [1] (buccal mucosa, TRPA1/TRPV1 double knockouts, FIG. 4) is “did not show a significant change in CGRP release”. For the same compound, at TRPA1 channel [5] (both skin and tracheal tissue samples), the “Effect of camphor at high formalin concentrations” value is on record as “could be overcome at high formalin concentrations”. Further, the “Formalin-stimulated CGRP release with camphor” value at TRPA1 channel [5] (skin tissue samples) and on TRPA1 channel [5] (tracheal tissue samples) was “decrease in formalin-stimulated GCRP release” each time. Besides, the “Epibatidine-induced CGRP release with camphor in absence of TRPA1” value with nAChR receptor [4] (tracheal samples from TRPA1 knockout mice, FIG. 3d) is on record as “effectively inhibited CGRP release; also recorded: marked reduction in CGRP release”. For the same compound, in the assay on nAChR receptor [4] (tracheal tissue, FIG. 3c), the “Epibatidine-induced CGRP release with inhibitor” value is reported as “release of CGRP could be inhibited”. For the same compound, the “Nicotine-stimulated calcium influx in combination with test substance” value in assay [2] is recorded as “not when given in combination with camphor”. Moreover, the “TPM-stimulated CGRP release with camphor” value with tracheal tissue samples is “largely blocked”. Moreover, in the assay with nerve fibers, the “Activation of nerve fibers induced by nicotine” value was “effectively inhibit activation of nerve fibers”. For the same compound, the “Dose dependence of anti-nicotinic effect (CGRP release)” value in the assay with nAChR receptor [3] (mouse trachea, nicotine plus various concentrations of camphor, FIG. 3a) is recorded as “CGRP release was decreased as the concentration of camphor was increased”. Further, the “CGRP release versus nicotine alone” value with nAChR receptor [3] is reported as “released less CGRP compared to samples exposed to nicotine alone”. The “CGRP release versus acrolein alone” value at TRPA1 channel [6] (FIG. 1c) is reported as “decrease in CGRP release; also recorded: marked reduction in CGRP release”. The “CGRP release in camphor treated samples as acrolein concentration was increased” value at TRPA1 channel [6] (versus acrolein only at the same concentration) was “significantly lower levels of CGRP”. Moreover, the “TRPA1 channel mediated release of iCGRP with camphor” value at TRPA1 channel [7] is given as “reduce the TRPA1 channel mediated release of iCGRP”. The Nor-epinephrine release result in the assay with acetylcholine receptors was “inhibit nor-epinephrine release from adrenal gland cells”. The “Heat-induced CGRP release with test substance” value (“Heat-induced CGRP release” for short) in the assay on TRPV1 channel (setting [8]) and with TRPV1 channel (setting [9]) was “released comparable levels of CGRP relative to normal samples” throughout.

Consider `CC(C)c1ccc(NC(=O)Cn2cnc3c2c(=O)n(C)c(=O)n3C)cc1` [HC030031, reference compound], for which the “CGRP release versus nicotine alone” value in the assay with nAChR receptor [3] is given as “did not show any significant reduction in CGRP release”. Further, at TRPA1 channel [6] (FIG. 1c), the “CGRP release versus acrolein alone” value is “CGRP release was also reduced”.

As to `Clc1ccc(C2CC3CCC2N3)cn1` (stereo not shown) [epibatidine, reference compound], in the assay with nAChR receptor [4] (tracheal tissue, FIG. 3c), the “CGRP release induced by the stimulus alone” value was “increased release of CGRP”.

With `C=CC=O` [acrolein, reference compound], the “CGRP release induced by the stimulus alone” value on TRPA1 channel [6] (trachea tissue, various concentrations, FIG. 1c) is reported as “cause CGRP release at various concentrations; also recorded: released increased amounts of CGRP when exposed to higher concentrations”.

As to `CCO` [ethanol], the “CGRP release in ethanol-treated TRPV1 knockout samples relative to ethanol-treated normal samples” value with TRPV1 channel (heat treated tracheal samples) is reported as 5 fold less. In addition, the “Heat-induced CGRP release” value is listed as “increase in CGRP release relative to untreated TRPV1 knockouts” with TRPV1 channel (setting [8]) and “increase CGRP release” with TRPV1 channel (setting [9]).

Turning to `NCCOB(c1ccccc1)c1ccccc1` [2-APB], the “Heat-induced CGRP release” value in the assay with TRPV1 channel (setting [9]) was “increase CGRP release”.

With `CC1(C)[C@H]2CC[C@]1(C)C(=O)C2` (single isomer, unassigned) [(−) enantiomer of camphor], the “Maximal nicotinic response (CGRP release, time course)” value in the assay with nAChR receptor [3] is “effective at abolishing the maximal nicotinic response”.
